Reference: US5258397A, “3-Isoxazoyl derivatives endowed with anticonvulsant activity, procedure for their preparation and their pharmaceutical compositions” (Novapharme, priority 1988, dated 1993)

Key:
SWISS CDl mice [1] = experiment: Seizures induced by pentetrazole (anticonvulsant activity); assay type: in vivo; details: i.p., % protected against clonic seizures; for % protection against Pentetrazole 30 mn.: 1/10 of the LD50, 30 mn before pentetrazole 70 mg/kg s.c.; for % protection against Pentetrazole 4 h: 1/10 of the LD50, 4 hours before pentetrazole 70 mg/kg s.c.
Protocol: (§1) The anticonvulsant activity is measured by the electroshock and pentetrazole tests according to the procedure of A. SWINYARD (ADD PROGRAM OF NINCDS BY H. J. KUPFERBERG. E. A. SWINYARD AND G. D. GLADDING in Advances in Epileptology/XIIth Epilepsy International Symposium edited by M. DAM, L. GRAM and J. K. PENRY-RAVEN press N.Y. 1981). The compounds are always administered (at 1/10 of the LD50) by IP injections into SWISS CDl mice (Charles River) of 20-25 g mean weight. All of the compounds are dissolved in a 0.9% solution of sodium chloride or suspended in a 1% solution of carboxymethyl cellulose or tween.
Seizures induced by pentetrazole. 70 mg/kg of pentetrazole are injected by the subcutaneous route into groups of 10 mice (1 control group and one treated group) in a volume of 0.2 ml/20 g of body weight. The compounds to be tested are administered either 30 mn before pentetrazole or 4 hours before pentetrazole by the intraperitoneal route. The animals are observed for 30 mn. The number of clonic seizures lasting 5 seconds or more and the percentage of the animals protected against clonic seizures are recorded.

[2] = Determination of the lethal dose 50 (MILLER and TAINTER); details: in vivo, ip
Protocol: The toxicity is measured by the technique of MILLER and TAINTER by the intraperitoneal route.

SWISS CDl mice [3] = experiment: Electroshock test (anticonvulsant activity); assay type: in vivo; details: i.p., % of animals not extending the hind paws; for % protection against Electro shock 30 min.: 1/10 of the LD50, 30 min before electroshock; for % protection against Electro shock 4 h: 1/10 of the LD50, 4 hours before electroshock
Protocol: as §1
Electroshock test. Groups of 10 mice (1 control group and one treated group) are used for each compound. The treated group receives the compound to be tested by the intraperitoneal route either 30 mn before the electroshock or 4 hours before the electroshock. This latter is applied with the aid of corneal electrodes (50 milliamperes for 0.2 second). Protection is measured by the percentage of animals not extending the hind paws.

mice = experiment: Cerebral protective activity: hypoxia induced by the altitude; assay type: in vivo; details: i.p., 30 min before closed chamber at 210 mm Hg
Protocol: Five mice (20 to 25 g) receive an administration of the compound or the liquid vehicle by the intraperitoneal route 30 min. before being placed in a closed chamber in which the atmospheric pressure is reduced to 210 mm Hg. The time of survival (in seconds) is measured from the induction of hypoxia to the cessation of respiratory movements.

Structure (SMILES) | % protection against Pentetrazole 30 mn. (SWISS CDl mice [1]) [%] | % protection against Pentetrazole 4 h (SWISS CDl mice [1]) [%] | LD50 [2] [mg/kg] | % protection against Electro shock 30 min. (SWISS CDl mice [3]) [%] | % protection against Electro shock 4 h (SWISS CDl mice [3]) [%] | LD50 ([2]; intraperitoneal route) [mg/kg] | hypoxia induced by the altitude; increase time of survival as % of controls (mice)
Cc1cc(NC(=O)c2c(C)cccc2C)no1 [Compound 17] | 30 | 20 | 2000 | 100 | 0 | – | –
CC(=O)n1nc(C(=O)Nc2c(C)cccc2C)cc1C [Compound 41] | 50 | 0 | 350 | 100 | 0 | – | –
Cc1cccc(C)c1C(=O)Nc1cc(C)n(C)n1 [Compound 3, N-(1,5-dimethyl-3-pyrazolyl)2,6-dimethylbenzamide] | 50 | 0 | – | 100 | 0 | 1000 | –
COc1cc(C(=O)Nc2c(C)cccc2C)nn1C [Compound 15, 3-(2,6-dimethylphenylcarbamoyl) 1-methyl 5-methoxy pyrazole] | 0 | 10 | – | 10 | 0 | 400 | 21 % of controls
CC(=O)n1nc(C(=O)Nc2c(C)cccc2Cl)cc1C [Compound 2, 3-(2-chloro 6-methylphenylcarbamoyl) 1-acetyl 5-methyl pyrazole] | 80 | 0 | – | 100 | 0 | 350 | –
Cc1cccc(Cl)c1NC(=O)c1cc(C)n(C)n1 [Compound 5, 3-(2-chloro 6-methylphenylcarbamoyl) 1,5-dimethyl pyrazole] | 40 | 10 | – | 100 | 10 | 500 | –
Cc1cccc(C)c1NC(=O)c1cc(C)n(C)n1 [Compound 4, 3-(2,6-dimethylphenylcarbamoyl) 1,5-dimethyl pyrazole] | 30 | 10 | – | 100 | 0 | 150 | 60 % of controls
Cc1cccc(C)c1NC(=O)c1cc(COC(=O)c2ccccc2)on1 [Compound 29] | 10 | 10 | 2000 | 70 | 0 | – | –
Cc1cccc(C)c1NC(=O)c1cc(CF)on1 [Compound 31, 3-(2,6-dimethylphenylcarbamoyl) 5-fluoromethyl isoxazole] | 0 | 0 | – | 100 | 0 | 375 | –
Cc1cccc(C)c1N(C)C(=O)c1cc(C)n(C)n1 [Compound 7] | 30 | 0 | 400 | 70 | 0 | – | –
